≈ marks a conversion by molar mass, not a printed value. Like-named read-outs stand apart in the source and are kept apart here.
Key:
Assay type in all cases: cell-based
[1] = test system: S. pneumoniae ATCC 49619; assay: MIC (broth microdilution or agar dilution, CLSI); details: Streptococcus pneumoniae, read-out: MIC
Experimental: (§1) Minimum inhibitory concentrations (MICs) were determined by broth microdilution method or agar dilution method following the Clinical and Laboratory Standards Institute guidelines. Standard bacterial strains were obtained from American Type Culture Collection (ATCC). Other bacterial strains were obtained from hospitals and commercial sources, so noted in Table 11. […] Specialized procedures were employed for streptococcal and anaerobic strains. All other bacterial strains were sub-cultured on blood agar plates (tryptic soy agar with 5% sheep blood, Hardy Diagnostics) and incubated overnight at 35° C. […] Suspensions were further diluted to obtain a final inoculum of 5×10^5 CFU/mL for broth microdilution experiments.

[2] = test system: S. aureus ATCC BAA-1707 (MRSA); assay: MIC (broth microdilution or agar dilution, CLSI); details: Staphylococcus aureus; S. aureus HAV#016, ATCC BAA-1707; MRSA; read-out: MIC
Experimental: as §1

[3] = test system: E. coli ATCC 25922; assay: MIC (broth microdilution or agar dilution, CLSI); details: Escherichia coli, ATCC25922, read-out: MIC
Experimental: as §1

[4] = test system: K. oxytoca Clinical; assay: MIC (broth microdilution or agar dilution, CLSI); details: Klebsiella oxytoca, read-out: MIC
Experimental: as §1

[5] = test system: E. faecalis ATCC 29212; assay: MIC (broth microdilution or agar dilution, CLSI); details: Enterococcus faecalis, read-out: MIC
Experimental: as §1

[6] = test system: S. aureus ATCC 29213; assay: MIC (broth microdilution or agar dilution, CLSI); details: Staphylococcus aureus, read-out: MIC
Experimental: as §1

[7] = test system: S. pyogenes ATCC 19615; assay: MIC (broth microdilution or agar dilution, CLSI); details: Streptococcus pyogenes, read-out: MIC
Experimental: as §1

[8] = test system: E. coli LptD; assay: MIC (broth microdilution or agar dilution, CLSI); details: Escherichia coli, read-out: MIC
Experimental: as §1

[9] = test system: E. coli ΔTolC; assay: microbe, parasite or virus in culture; details: Escherichia coli
Experimental: as §1

[10] = test system: broad panel of different clinical isolates; assay: microbe, parasite or virus in culture; details: Enterococcus faecium, VRE, E. faecium HAV#326; Clinical
Experimental: as §1

[11] = test system: E. faecium Clinical VRE; assay: MIC (broth microdilution or agar dilution, CLSI); details: Enterococcus faecium; E. faecium Clinical VRE; read-out: MIC
Experimental: (§2) Minimum inhibitory concentrations (MICs) were determined by broth microdilution method or agar dilution method following the Clinical and Laboratory Standards Institute guidelines. Standard bacterial strains were obtained from American Type Culture Collection (ATCC). Other bacterial strains were obtained from hospitals and commercial sources, so noted in Table 11. Before the start of the MIC experiment, standard and test compound stock solutions were prepared in dimethyl sulfoxide (DMSO, Aldrich D2650) at a stock concentration of 5,120 μg/mL. The compound concentration range typically employed for each experiment was 128-0.06 μg/mL (2.5% final DMSO concentration). Clindamycin was used as a comparator in all experiments and each experiment was performed in triplicate. Specialized procedures were employed for streptococcal and anaerobic strains. All other bacterial strains were sub-cultured on blood agar plates (tryptic soy agar with 5% sheep blood, Hardy Diagnostics) and incubated overnight at 35° C. Organisms were suspended in cation-adjusted Mueller-Hinton broth (CaMHB, BD 212322) and optical density was adjusted to 0.5 McFarland standard. Suspensions were further diluted to obtain a final inoculum of 5×10^5 CFU/mL for broth microdilution experiments.

[12] = test system: S. aureus cErmA; assay: MIC (broth microdilution or agar dilution, CLSI); details: Staphylococcus aureus; S. aureus cErmA; read-out: MIC
Experimental: as §2

[13] = ATCC49619, S. pneumoniae ATCC 49619
[14] = ATCC29212, E. faecalis ATCC 29212
[15] = ATCC29213, S. aureus ATCC 29213
[16] = ATCC19615, S. pyogenes ATCC 19615

Structure (SMILES)	MIC ([1]; ATCC49619, S. pneumoniae HAV#003, ATCC 49619) [µg/mL]	MIC [2] [µg/mL]	MIC ([3]; E. coli HAV#006, ATCC 25922) [µg/mL]	MIC ([4]; K. oxytoca HAV#450, Clinical) [µg/mL]	MIC ([5]; ATCC29212, E. faecalis HAV#005, ATCC 29212) [µg/mL]	MIC ([6]; ATCC29213, S. aureus HAV#001, ATCC 29213, MP-549) [µg/mL]	MIC ([7]; ATCC19615, S. pyogenes HAV#004, ATCC 19615) [µg/mL]	MIC ([8]; E. coli HAV#040, LptD) [µg/mL]	MIC ([9]; E. coli HAV#038, ΔTolC) [µg/mL]	MIC [10] [µg/mL]	MIC [1, 13] [µg/mL]	MIC ([3]; E. coli ATCC 25922) [µg/mL]	MIC ([4]; K. oxytoca Clinical) [µg/mL]	MIC [5, 14] [µg/mL]	MIC [6, 15] [µg/mL]	MIC [7, 16] [µg/mL]	MIC ([8]; E. coli LptD) [µg/mL]	MIC [11] [µg/mL]	MIC [12] [µg/mL]	MIC ([9]; E. coli ΔTolC) [µg/mL]
CCC[C@@H]1C[C@@H](C(=O)N[C@@H]([C@H]2O[C@H](SC)[C@H](O)[C@@H](O)[C@H]2O)[C@@H](C)O)N(C)C1 [Lincomycin]	1 (≈ 2.46 µM)	0.25 (≈ 0.615 µM)	> 256	> 256	32 (≈ 78.7 µM)	0.5 (≈ 1.23 µM)	0.5 (≈ 1.23 µM)	64 (≈ 157 µM)	128 (≈ 315 µM)	16 (≈ 39.4 µM)										
CS[C@H]1O[C@H]([C@H](NC(=O)[C@H]2NC[C@@H]3C[C@H](CC(C)C)CCO[C@H]32)[C@H](C)Sc2ccc(CN3CCCCC3)cc2)[C@H](O)[C@H](O)[C@H]1O [FSA-09-05-077, (4S,5aS,8S,8aR)-4-Isobutyl-N-((1S,2S)-2-((4-(piperidin-1-ylmethyl)phenyl)thio)-1-((2R,3R,4S,5R,6R)-3,4,5-trihydroxy-6-(methylthio)tetrahydro-2H-pyran-2-yl)propyl)octahydro-2H-oxepino[2,3-c]pyrrole-8-carboxamide]											0.25 (≈ 0.375 µM)	16 (≈ 24 µM)	1 (≈ 1.5 µM)	1 (≈ 1.5 µM)	2 (≈ 3 µM)	0.125 (≈ 0.188 µM)	1 (≈ 1.5 µM)	1 (≈ 1.5 µM)	4 (≈ 6.01 µM)	4 (≈ 6.01 µM)
CS[C@H]1O[C@H]([C@H](NC(=O)[C@H]2NC[C@@H]3C[C@H](CC(C)C)CCO[C@H]32)[C@H](C)Sc2nnc(N3CCNCC3)s2)[C@H](O)[C@H](O)[C@H]1O [FSA-09-05-011, (4S,5aS,8S,8aR)-4-Isobutyl-N-((1S,2S)-2-((5-(piperazin-1-yl)-1,3,4-thiadiazol-2-yl)thio)-1-((2R,3R,4S,5R,6R)-3,4,5-trihydroxy-6-(methylthio)tetrahydro-2H-pyran-2-yl)propyl)octahydro-2H-oxepino[2,3-c]pyrrole-8-carboxamide]											1 (≈ 1.51 µM)	32 (≈ 48.4 µM)	64 (≈ 96.8 µM)	2 (≈ 3.03 µM)	4 (≈ 6.05 µM)	1 (≈ 1.51 µM)	8 (≈ 12.1 µM)	32 (≈ 48.4 µM)	64 (≈ 96.8 µM)	2 (≈ 3.03 µM)
CSC1O[C@H]([C@H](NC(=O)[C@H]2NC[C@@H]3C[C@H](CCC(F)F)CCO[C@H]32)[C@H](C)Cl)C(O)C(O)[C@H]1O (stereo partly drawn) [FSA-12-03-055]											0.06 (≈ 0.116 µM)	16 (≈ 30.9 µM)	16 (≈ 30.9 µM)	0.25 (≈ 0.484 µM)	0.125 (≈ 0.242 µM)	0.06 (≈ 0.116 µM)	4 (≈ 7.74 µM)	8 (≈ 15.5 µM)	16 (≈ 30.9 µM)	1 (≈ 1.93 µM)
CCCC[C@@H]1CCO[C@@H]2[C@H](CN[C@@H]2C(=O)N[C@H]([C@H](C)Cl)[C@H]2OC(SC)[C@H](O)C(O)C2O)C1 (stereo partly drawn) [FSA-12-03-029]											0.06 (≈ 0.121 µM)	16 (≈ 32.3 µM)	32 (≈ 64.6 µM)	0.25 (≈ 0.505 µM)	0.25 (≈ 0.505 µM)	0.06 (≈ 0.121 µM)	4 (≈ 8.08 µM)	8 (≈ 16.2 µM)	8 (≈ 16.2 µM)	4 (≈ 8.08 µM)
CS[C@H]1O[C@H]([C@H](NC(=O)[C@H]2NC[C@@H]3C[C@H](CC(C)C)CCO[C@H]32)[C@H](C)Sc2nnc(N)s2)[C@H](O)[C@H](O)[C@H]1O [FSA-09-04-094, (4S,5aS,8S,8aR)-N-((1S,2S)-2-((5-Amino-1,3,4-thiadiazol-2-yl)thio)-1-((2R,3R,4S,5R,6R)-3,4,5-trihydroxy-6-(methylthio)tetrahydro-2H-pyran-2-yl)propyl)-4-isobutyloctahydro-2H-oxepino[2,3-c]pyrrole-8-carboxamide]											0.5 (≈ 0.845 µM)	> 128	> 128	2 (≈ 3.38 µM)	4 (≈ 6.76 µM)	1 (≈ 1.69 µM)	64 (≈ 108 µM)	128 (≈ 216 µM)	128 (≈ 216 µM)	32 (≈ 54.1 µM)
